In article PMC12390126, “Human Skin Permeation of Ethoxy- and Propoxypropanol Commonly Found in Water-Based Products” (Toxics, 2025):
“Also recorded” adds a separate entry of the source.

Assays:
[1] = In vitro flow-through diffusion cell skin permeation; format: in vitro ADME, human; details: for first quantified in the receptor fluid after application: Figure 1A, first 3 h of exposure; for permeability rate J diluted in water compared to neat: aqueous 50:50 versus neat; for time to permeate previously frozen human skin: aqueous PGEs applied
Description: Human abdominal full thickness skin was obtained as surgical waste from the Lausanne University Hospital (CHUV) and the Department of Musculoskeletal Medicine (DAL) Biobank, Switzerland, according to the Swiss ethics in the canton Vaud (CER-VD: Commission cantonal d’éthique de la recherche sur l’être humain, ethical protocol 264/12). The surgeon obtained written consent from the patients before the start of the operation. The collected skin was anonymized, and only sex and age were provided for this study. Human skin was obtained directly after the surgery and immediately dermatomed to a thickness of 800 µm (Acculan®II, B. Braun/Aesculap, Sempach, Switzerland) to account for any potential storage effects on its in vitro mass balance. The experiments were run with triplicate skin samples (n = 3) from three different donors giving a total of nine samples for each experiment. The skin samples used for this study were stored at −20 °C for up to four years. The experiments were performed only when a sufficient number of skin samples was available from three different donors.
The in vitro flow-through diffusion cell experiments were used to assess skin permeation kinetics after neat and aqueous application, separately. The abdominal human frozen skin was thawed for one hour at room temperature and cut into disks (exposed area of 1 cm^2). These were mounted onto the diffusion cells between the donor and the receptor chamber filled with saline water (0.9% NaCl (aq), 8 mL). Four different experimental conditions were used: application of solutions containing either PGEE or PGPE (neat) and application of aqueous solutions of PGEE or PGPE (50:50 v/v mixture). Each experiment was performed with triplicate cells from three different donors ([…] diffusion cells exposed to PGE per experimental condition) and one control cell per skin donor (n = 3 diffusion cells not exposed to PGE). The trans epidermal water loss (TEWL; VapoMeter wireless, Delfin Technologies Ltd., Kuopio, Finland) was measured for each skin disk to assess skin sample integrity. Skin samples with a TEWL greater than 11 g/m^2/h were excluded. TEWL was measured again at the end of each experiment to confirm skin integrity throughout the experiment.
The in vitro flow-through diffusion cell experiments were carried out using a rack-mounted system consisting of nine in-line jacketed flow-through diffusion cells (PermeGear® from SES Analytical System, Bechenheim, Germany). A peristaltic pump (Ismatec IPC-N, IDEX Health and Science GmbH, Wertheim-Mondfeld, Germany) operated at a flow rate of 200 µL/min for the first 180 min to ensure that the transition point—when the glycol ethers reached the receptor fluid—was accurately captured for these rapidly diffusing substances. The pump rate was then adjusted to 40 µL/min for the remaining time until 24 h. These collection times and flow rates were set to achieve steady state. The diffusion cell system was equipped with a magnetic stirrer in each cell to ensure a constant and uniform mixing of the substances in the reservoir fluid. The diffusion cells were kept at 32 °C with a heated water bath (Haake SC 100 Digital Immersion Circulator, Thermo Scientific, Newington, NH, USA). A fraction collector (FC 204, Gilson Inc., Middleton, WI, USA) automatically sampled the reservoir fluid at different time points for 24 h, i.e., at 0.5, 1, 1.5, 2, 2.5, 3, 6, 9, 12, 15, 18, 21, and 24 h. PGPE (>95%) and PGEE (>99%) (Chemic Brunschwig AG, Basel, Switzerland) were applied separately onto the skin samples either neat substances or aqueous solutions (Milli-Q Advantage A10 System, Millipore AG, MerckMillipore, Schaffhouse, Switzerland). We applied 500 µL (aqueous application) and 200 µL (neat application) of them to increase the likelihood of reaching steady state permeation conditions. All collected samples were stored at 4 °C after the experiment. […]

[2] = Mass balance of flow-through diffusion cell experiments; format: in vitro ADME, human; details: for Receptor Chamber (percentage of applied dose): remaining fluid at end
Experimental: A mass balance was performed only for flow-through diffusion cell experiments following the OECD guidelines, where the mean recovery should be 100 ± 10% [20]. The following components of the test system were analyzed to determine recovery: donor chamber, skin, and receptor chamber. The donor chamber was rinsed three times with 500 µL of water (donor chamber samples), the skin disk was sonicated three times for five minutes in water (skin samples), and the remaining fluid receptor chamber was collected (receptor chamber samples). If liquid was present in the donor chamber at the end of the experiment, it was also collected and analyzed with the donor chamber samples. PGE concentrations were quantified in all mass balance samples by GC-MS/MS, i.e., donor chamber rinsing water, water collected after sonication of skin, and remaining fluid receptor chamber. Mean concentrations of PGEE and PGPE were calculated for all cells in both conditions (neat or aqueous), and the results were reported as the percentage of the applied dose.

| first quantified in the receptor fluid after application [1] | time to permeate previously frozen human skin [1] | Donor Chamber (percentage of applied dose) ([2]; 50:50 (aq)) | Receptor Chamber over 24 h (sum of receptor fluid collected at different time points) ([2]; 50:50 (aq)) | Recovery (percentage of applied dose) ([2]; 50:50 (aq)) | Receptor Chamber (percentage of applied dose) ([2]; 50:50 (aq)) | Donor Chamber (percentage of applied dose) ([2]; neat) | Receptor Chamber over 24 h (sum of receptor fluid collected at different time points) ([2]; neat) | Recovery (percentage of applied dose) ([2]; neat) | Receptor Chamber (percentage of applied dose) ([2]; neat) | SMILES | permeability rate J diluted in water compared to neat [1] |
| --- | --- | --- | --- | --- | --- | --- | --- | --- | --- | --- | --- |
| 30 min | ≤ 30 min | 0.02% | 44.0% | 45.1% | 1.1% | 0.0003% | 16.8% | 17.3% | 0.5% | CCOCC(C)O (stereo not shown) [PGEE] | double |
| 30 min | ≤ 30 min | 0.05% | 24.1% | 24.6% | 0.4% | 0.18% | 9.4% | 9.9% | 0.3% | CCCOCC(C)O (stereo not shown) [PGPE, propoxypropanol] | four times greater; also recorded: more than four times quicker |
